Molecules are shown by their SMILES. Where two headings read alike, the source gives them in different places.

Drawing on patent publication US20240025907A1, “QUINAZOLINE PAN-KRas INHIBITORS” (Mirati Therapeutics, Inc., priority 2022, published 2024), this text covers IC50 for six molecules.

In one assay the target is T1, KRas^WT (Homo sapiens, UniProt P01116).
T1 construct: Biotinylated KRas (corresponding to amino acids 1-169, produced at Accelegan Inc.); biotin (biotinylated); purchased Accelegan Inc
T1 sequence (P01116 1-169 isoform P01116-2): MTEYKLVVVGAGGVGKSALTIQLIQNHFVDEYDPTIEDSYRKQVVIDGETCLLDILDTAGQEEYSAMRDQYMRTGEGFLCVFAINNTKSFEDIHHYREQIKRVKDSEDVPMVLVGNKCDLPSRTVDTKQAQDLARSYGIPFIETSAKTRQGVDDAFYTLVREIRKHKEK
In words: KRas TR-FRET tracer displacement binding assay, WT. To be noted: 60-minute incubation. The essentials:
(§1)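 TR-FRET displacement: biotinylated KRas (aa 1-169) incubated with Cy5-labelled tracer, terbium streptavidin and compound (1% DMSO final) in 50 mM HEPES pH 7.5, 5 mM MgCl2, 0.005% Tween-20, 1 mM DTT. Read after 60-minute room-temperature incubation.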
On the technique in general: In TR-FRET formats the signal depends on donor and acceptor labels being close together.

In a further assay the target is T2, KRas^G12V (Homo sapiens, UniProt P01116, G12V).
T2 construct: Biotinylated KRas (corresponding to amino acids 1-169, produced at Accelegan Inc.); biotin (biotinylated); purchased Accelegan Inc
T2 sequence (P01116 1-169 isoform P01116-2 G12V): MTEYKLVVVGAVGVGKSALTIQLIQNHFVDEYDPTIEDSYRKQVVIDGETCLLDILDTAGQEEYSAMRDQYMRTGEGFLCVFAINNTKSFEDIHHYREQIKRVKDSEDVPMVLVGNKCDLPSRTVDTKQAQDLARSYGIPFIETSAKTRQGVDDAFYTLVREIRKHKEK
The experiment in a line: KRas TR-FRET tracer displacement binding assay, G12V. To be noted: 60-minute incubation. A digest of the protocol: as §1

For assay [1], the system named is KRas-mediated Phosphorylation of ERK in H358 cells. The experiment in a line: Cisbio HTRF pERK assay, H358 cells. To be noted: H358 cells, 3 hrs compound, read-out: Inhibition (HTRF IC50 nM) of KRas-mediated Phosphorylation of ERK, H358. The assay is classed as cell-based.
Assay [2] deals with KRas-mediated Phosphorylation of ERK in H2009 cells. In words: Cisbio HTRF pERK assay, H2009 cells. The assay is classed as cell-based. To be noted: Homo sapiens, NCI-H2009, H2009 cells; read-out: Inhibition (HTRF IC50 nM) of KRas-mediated Phosphorylation of ERK, H2009.
The next assay addresses T3, KRas^G12C (Homo sapiens, UniProt P01116, G12C).
T3 construct: Biotinylated KRas (corresponding to amino acids 1-169, produced at Accelegan Inc.); biotin (biotinylated); purchased Accelegan Inc
The experiment in a line: KRas TR-FRET tracer displacement binding assay, G12C. The following applies: 60-minute incubation. The essentials: as §1

Assay [3] concerns KRas-mediated Phosphorylation of ERK in MKN1 cells. In words: Cisbio HTRF pERK assay, MKN1 cells. The assay is classed as cell-based. The following applies: Homo sapiens, MKN-1, 3 hour compound, read-out: Inhibition (HTRF IC50 nM) of KRas-mediated Phosphorylation of ERK, MKN1. As for the experimental part: (§2) Inhibition of KRas Phosphorylation of ERK (HTRF) by Exemplary Compounds of Formula (I) • Cisbio HTRF Advanced pERK Assay Catalog #64AERPEH • Cell: MKN1, PSN1 • Procedure: • Day 1: Seed 6,000 cells/well −25 μl/well in 384-well white solid bottom plate; RPM1_10% FBS.

In assay [4] the test system is KRas-mediated Phosphorylation of ERK in H727 cells. In words: Cisbio HTRF pERK assay, H727 cells. The assay is classed as cell-based. The following applies: 3 hrs compound, read-out: Inhibition (HTRF IC50 nM) of KRas-mediated Phosphorylation of ERK, H727.
The next assay deals with T4, KRas^G12S (Homo sapiens, UniProt P01116, G12S).
T4 construct: Biotinylated KRas (corresponding to amino acids 1-169, produced at Accelegan Inc.); biotin (biotinylated); purchased Accelegan Inc
T4 sequence (P01116 1-169 isoform P01116-2 G12S): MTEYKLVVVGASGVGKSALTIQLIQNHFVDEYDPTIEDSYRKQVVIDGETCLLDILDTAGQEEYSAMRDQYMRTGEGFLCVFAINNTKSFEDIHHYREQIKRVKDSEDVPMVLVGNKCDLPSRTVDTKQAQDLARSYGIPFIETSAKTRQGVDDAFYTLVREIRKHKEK
The experiment in a line: KRas TR-FRET tracer displacement binding assay, G12S. To be noted: 60-minute incubation. A digest of the protocol: as §1

Assay [5] has as its system KRas-mediated Phosphorylation of ERK in A549 cells. The experiment in a line: Cisbio HTRF pERK assay, A549 cells. The assay is classed as cell-based. To be noted: A549 cells, 3 hrs compound, read-out: Inhibition (HTRF IC50 nM) of KRas-mediated Phosphorylation of ERK, A549.
The subject of assay [6] is KRas-mediated Phosphorylation of ERK in HCT116 cells. The experiment in a line: Cisbio HTRF pERK assay, HCT116 cells. The assay is classed as cell-based. The following applies: HCT116 cells, 3 hrs compound, read-out: Inhibition (HTRF IC50 nM) of KRas-mediated Phosphorylation of ERK, HCT116.
In assay [7] the test system is KRas-mediated Phosphorylation of ERK in PSN1 cells. The experiment in a line: Cisbio HTRF pERK assay, PSN1 cells. The assay is classed as cell-based. The following applies: Homo sapiens, PSN1, 3 h, 3 hour compound, read-out: Inhibition (HTRF IC50 nM) of KRas-mediated Phosphorylation of ERK, PSN1. As for the experimental part: as §2
Assay [8] concerns KRas-mediated Phosphorylation of ERK in AsPC-1 cells. In words: Cisbio HTRF pERK assay, AsPC-1 cells. The assay is classed as cell-based. The following applies: 3 hrs compound, read-out: Inhibition (HTRF IC50 nM) of KRas-mediated Phosphorylation of ERK, AsPC-1.
In the next assay the target is T5, KRas^G12D (Homo sapiens, UniProt P01116, G12D).
T5 construct: Biotinylated KRas (corresponding to amino acids 1-169, produced at Accelegan Inc.); biotin (biotinylated); purchased Accelegan Inc
T5 sequence (P01116 1-169 isoform P01116-2 G12D): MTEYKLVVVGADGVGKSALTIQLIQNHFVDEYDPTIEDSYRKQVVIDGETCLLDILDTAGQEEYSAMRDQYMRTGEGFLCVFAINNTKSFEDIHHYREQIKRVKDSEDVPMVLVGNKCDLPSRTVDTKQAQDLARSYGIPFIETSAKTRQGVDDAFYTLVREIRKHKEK
In words: KRas TR-FRET tracer displacement binding assay, G12D. The following applies: 60-minute incubation. The essentials: as §1

Assay [9] has as its system KRas-mediated Phosphorylation of ERK in H460 cells. In words: Cisbio HTRF pERK assay, H460 cells. The assay is classed as cell-based. The following applies: H460 cells, 3 hrs compound, read-out: Inhibition (HTRF IC50 nM) of KRas-mediated Phosphorylation of ERK, H460.
The next assay deals with T6, KRas^G12R (Homo sapiens, UniProt P01116, G12R).
T6 construct: Biotinylated KRas (corresponding to amino acids 1-169, produced at Accelegan Inc.); biotin (biotinylated); purchased Accelegan Inc
T6 sequence (P01116 1-169 isoform P01116-2 G12R): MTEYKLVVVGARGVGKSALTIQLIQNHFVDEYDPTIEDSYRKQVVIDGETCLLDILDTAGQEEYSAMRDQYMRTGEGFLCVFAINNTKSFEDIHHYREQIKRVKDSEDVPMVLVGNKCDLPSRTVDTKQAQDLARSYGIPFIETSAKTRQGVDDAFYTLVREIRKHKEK
The experiment in a line: KRas TR-FRET tracer displacement binding assay, G12R. To be noted: 60-minute incubation. As for the experimental part:
This Example illustrates that exemplary compounds of the present invention bind to KRas and are capable of displacing a labeled tracer ligand occupying the KRas binding site. KRas^WT, KRas^G12A, KRas^G12C, KRas^G12D, KRas^G12R, KRas^G12S, KRas^G12V, KRas^G13D, or KRas^Q61H was used in the assay.
The ability of a compound to bind to KRas was measured using a TR-FRET displacement assay. Biotinylated KRas (corresponding to amino acids 1-169, produced at Accelegan Inc.) was incubated with custom made Cy5 labelled tracer, terbium streptavidin (Cisbio Inc.) and compound (1% DMSO final) in buffer (50 mM HEPES, pH 7.5, 5 mM MgCl2, 0.005% Tween-20 and 1 mM DTT). After a 60-minute incubation at room temperature, the reaction was measured using a BMG LABTECH CLARIO star Plus via TR-FRET. […] The POC values were fit to a 4-parameter IC50 equation and the IC50 value reported in Table 1 (selected Examples 172-222).

T3 sequence (P01116 1-169 isoform P01116-2 G12C): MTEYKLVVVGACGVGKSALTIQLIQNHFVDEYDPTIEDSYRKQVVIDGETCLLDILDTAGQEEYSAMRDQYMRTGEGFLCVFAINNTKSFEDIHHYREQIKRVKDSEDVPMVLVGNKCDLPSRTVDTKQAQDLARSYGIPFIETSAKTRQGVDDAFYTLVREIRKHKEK

For `C[C@@]1(O)COCCN(c2nc(OC[C@@]34CCCN3C[C@H](F)C4)nc3c(F)c(-c4ccc(F)c5sc(N)c(C#N)c45)c(F)cc23)C1` [Example 216, 2-amino-4-(6,8-difluoro-2-(((2R,7aS)-2-fluorotetrahydro-1H-pyrrolizin-7a(5H)-yl)methoxy)-4-((S)-6-hydroxy-6-methyl-1,4-oxazepan-4-yl)quinazolin-7-yl)-7-fluorobenzo[b]thiophene-3-carbonitrile], the IC50 – broadly, the point on the concentration scale where inhibition reaches its midpoint – on KRas^WT came to 6 nM; at KRas^G12V it was 4 nM; in assay [1] (Homo sapiens, NCI-H358, 3 h), 26 nM; in [2], 18 nM; at KRas^G12C, 6 nM; in assay [3], 12 nM. Moreover, the IC50 in assay [4] (Homo sapiens, NCI-H727, 3 h) stood at 131 nM; on KRas^G12S, 5 nM; in assay [5] (Homo sapiens, A549, 3 h), 325 nM; in assay [6] (Homo sapiens, HCT-116, 3 h) it was 346 nM; in assay [7], 2440 nM; in assay [8] (Homo sapiens, ASPC1, 3 h), 175 nM. Moreover, the IC50 on KRas^G12D came out at 4 nM; in assay [9] (Homo sapiens, NCI-H460, 3 h) it was 118 nM.
Consider `CCc1c(F)ccc2cc(O)cc(-c3c(F)cc4c(N5CC(c6ccncc6)C5)nc(OC[C@@]56CCCN5C[C@H](F)C6)nc4c3F)c12` [Example 175, 4-(6,8-difluoro-2-(((2R,7aS)-2-fluorotetrahydro-1H-pyrrolizin-7a(5H)-yl)methoxy)-4-(3-(pyridin-4-yl)azetidin-1-yl)quinazolin-7-yl)-5-ethyl-6-fluoronaphthalen-2-ol], for which the IC50 at KRas^G12V amounted to 12 nM; in assay [1] (Homo sapiens, NCI-H358, 3 h) it was 185 nM; on KRas^G12R it was 16 nM; in [4] (Homo sapiens, NCI-H727, 3 h) it was 422 nM; in [5] (Homo sapiens, A549, 3 h), 490 nM; in [6] (Homo sapiens, HCT-116, 3 h), 1640 nM. In addition, the IC50 in assay [8] (Homo sapiens, ASPC1, 3 h) came out at 1280 nM; at KRas^G12D it was 313 nM; in assay [9] (Homo sapiens, NCI-H460, 3 h) it was 445 nM.
As to `CCc1c(F)ccc2cc(O)cc(-c3c(F)cc4c(NCc5c[nH]c6ncccc56)nc(OC[C@@]56CCCN5C[C@H](F)C6)nc4c3F)c12` [Example 174, 4-(4-(((1H-pyrrolo[2,3-b]pyridin-3-yl)methyl)amino)-6,8-difluoro-2-(((2R,7aS)-2-fluorotetrahydro-1H-pyrrolizin-7a(5H)-yl)methoxy)quinazolin-7-yl)-5-ethyl-6-fluoronaphthalen-2-ol], the IC50 on KRas^G12V was found to be 9 nM; in assay [1] (Homo sapiens, NCI-H358, 3 h), 324 nM; at KRas^G12R it was 9 nM; in assay [4] (Homo sapiens, NCI-H727, 3 h) it was 694 nM; in [5] (Homo sapiens, A549, 3 h), 734 nM; in assay [6] (Homo sapiens, HCT-116, 3 h) it was 2260 nM. The IC50 in assay [8] (Homo sapiens, ASPC1, 3 h) turned out to be 4020 nM; at KRas^G12D it was 285 nM; in assay [9] (Homo sapiens, NCI-H460, 3 h) it was 968 nM.
For the molecule `N#Cc1c(N)sc2c(F)ccc(-c3c(Cl)cc4c(NCC5CS(=O)(=O)C5)nc(OC[C@@]56CCCN5C[C@H](F)C6)nc4c3F)c12` [Example 222, 2-amino-4-(6-chloro-4-(((1,1-dioxidothietan-3-yl)methyl)amino)-8-fluoro-2-(((2R,7aS)-2-fluorotetrahydro-1H-pyrrolizin-7a(5H)-yl)methoxy)quinazolin-7-yl)-7-fluorobenzo[b]thiophene-3-carbonitrile], the IC50 in assay [1] (Homo sapiens, NCI-H358, 3 h) came to 207 nM; in [2], 273 nM; in assay [3], 84 nM; in assay [4] (Homo sapiens, NCI-H727, 3 h), 1440 nM; in assay [5] (Homo sapiens, A549, 3 h), 1640 nM; in [6] (Homo sapiens, HCT-116, 3 h), 1110 nM. Also, the IC50 was greater than 10000 nM in assay [7]; 2560 nM in [8] (Homo sapiens, ASPC1, 3 h); 911 nM in [9] (Homo sapiens, NCI-H460, 3 h).
With `N#Cc1c(N)sc2c(F)ccc(-c3c(Cl)cc4c(N5CC6CCC(C5)N6)nc(OC[C@@]56CCCN5C/C(=C\F)C6)nc4c3F)c12` [Example 180, (R)-4-(4-((1R,5S)-3,8-diazabicyclo[3.2.1]octan-3-yl)-6-chloro-8-fluoro-2-(((S,Z)-2-(fluoromethylene)tetrahydro-1H-pyrrolizin-7a(5H)-yl)methoxy)quinazolin-7-yl)-2-amino-7-fluorobenzo[b]thiophene-3-carbonitrile], the IC50 in assay [1] turned out to be 54 nM; in assay [2], 40 nM; in assay [3], 10 nM; in assay [4] it was 512 nM; in [5] it was 139 nM; in assay [6] it was 72 nM. The half-maximal inhibitory concentration (IC50) in [7] is 1370 nM; in [8], 1 nM; in [9], 81 nM.
For the molecule `CN(C)C(=O)c1cc2n(n1)CCCN(c1nc(OC[C@@]34CCCN3C[C@H](F)C4)nc3c(F)c(-c4ccc(F)c5sc(N)c(C#N)c45)c(F)cc13)C2` [Example 215, 5-(7-(2-amino-3-cyano-7-fluorobenzo[b]thiophen-4-yl)-6,8-difluoro-2-(((2R,7aS)-2-fluorotetrahydro-1H-pyrrolizin-7a(5H)-yl)methoxy)quinazolin-4-yl)-N,N-dimethyl-5,6,7,8-tetrahydro-4H-pyrazolo[1,5-a][1,4]diazepine-2-carboxamide], the IC50 at KRas^WT is less than 2 nM; on KRas^G12V, less than 2 nM; in [1] (Homo sapiens, NCI-H358, 3 h) it was 21 nM; in [2], 34 nM; on KRas^G12C, 4 nM; in assay [3], 13 nM. Further, the IC50 was 35 nM in assay [4] (Homo sapiens, NCI-H727, 3 h); less than 2 nM on KRas^G12S; 393 nM in assay [5] (Homo sapiens, A549, 3 h); 392 nM in [6] (Homo sapiens, HCT-116, 3 h); 3820 nM in assay [7]; 25 nM in [8] (Homo sapiens, ASPC1, 3 h). Besides, the IC50 on KRas^G12D is less than 2 nM; in assay [9] (Homo sapiens, NCI-H460, 3 h), 223 nM.
